#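 Dose response: 5 concentrations. Exposure: 48 h. Format: 96-well plates. Endpoint: linear interpolation; highest concentration if not reached. The concentration for 50% growth inhibition is given as GI50. Definition used: TGI = concentration required for complete inhibition of growth.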
# Tested on: SN12C renal
# Experiment: NCI anticancer screen, dose series, 48 h
Compound,TGI [µM],GI50 [µM]
COc1ccccc1/C=C/c1cnccn1,> 10,–
CC(C)c1ccccc1S(=O)c1ccccc1C(C)(C)O (stereo not drawn),> 100,–
CC(C)(C)C(=O)/C=C/c1ccc(Oc2ccccc2)cc1,46,–
CC1=C(C(=O)Nc2c(C)cccc2C)C(c2ccccc2Cl)C(C(=O)Nc2c(C)cccc2C)=C(C)N1,> 100,–
O=C1CSC(Cc2nc3ccccc3[nH]2)=N1,44.8,–
COc1ccccc1NC(=O)C1=C(C)NC(C)=C(C(=O)Nc2ccccc2OC)C1c1ccc([N+](=O)[O-])cc1,> 100,–
CCOC(=O)[C@H](CCCNC(=O)OC(C)(C)C)NCc1ccc(OC)c(OC)c1,> 100,–
O=C(/C=C/c1c(O)ccc2ccccc12)c1ccc2ccccc2c1,> 100,–
O=[N+]([O-])c1ccc(-n2nnc(C3=NCCCN3)c2-c2ccc(Cl)cc2)cc1,> 100,–
COC(=O)C12C3C4C5(C(=O)OC)C(C1C35C(=O)N(C(C)C)C(C)C)C42C(=O)N(C(C)C)C(C)C (stereo not drawn),> 50,–
N#CC(C#N)=c1[nH]c2cccc3c2-c2c(cccc2c3=C(C#N)C#N)[nH]1,> 100,–
C#C[C@]1(O)CC[C@H]2[C@@H]3CC=C4c5sc(Nc6ccccc6)nc5CC[C@]4(C)[C@H]3CC[C@@]21C,11.1,2.86
COc1cc(NC(C)CCCN)c2nccc(C)c2c1OC (stereo not drawn),25.8,11.4
COC(=O)/C=C/C1C(C(=O)OC)C2(C(=O)OC)CCC1(C(=O)OC)N2 (stereo not drawn),> 100,–
N#CC(C(=O)/C(=N/Nc1nc(=S)[nH]n1N)C(C#N)c1ccccc1)c1ccccc1 (stereo not drawn),> 100,–
N#CC(/C(=N/NC(=O)C(=O)NN)C(=O)NC12CC3CC(CC(C3)C1)C2)c1ccccc1 (stereo not drawn),> 100,–
CC(=O)OCC1OC([S-])C(OC(C)=O)C(OC(C)=O)C1OC(C)=O.CC[PH+](CC)CC.CC[PH+](CC)CC.[Au].[Au] (stereo not drawn),1.78,0.567
Cc1cc(C)n(CCNCCn2nc(C)cc2C)n1,> 100,–
COc1cc2c(cc1OCc1ccccc1)CNCC2,> 100,–

Compound,TGI [µM],GI50 [µM]
O=C(CN1CCCCC1)N1CCc2c([nH]c3ccccc23)C1c1cccnc1 (stereo not drawn),> 100,–
O/N=C\c1c(O)ccc2ccccc12,> 100,–
CCCCCCCCCc1cc(=O)c2c(O)cccc2o1,> 100,–
O=C(C[n+]1ccccc1)NNC(=O)/C(=C/c1ccc2c(c1)OCO2)NC(=O)c1ccccc1,> 100,–
Cc1c(C2Nc3ccccc3C2C)[nH]c2ccccc12 (stereo not drawn),24.1,11.4
O=S(O)CCCCSSCc1ccccc1CSSCCCCS(=O)O,> 100,–
Clc1ccc(-c2c(C3=NCCN3)nnn2-c2ccc(Cl)cc2)cc1,> 100,–
CC(C)(C)N1CC2(CCCCC2)C1=O,> 100,–
O=C(CCC(=O)Nc1cccc(Cl)c1)CC(=O)c1ccc(Cl)cc1,> 100,–
O=C(CCCN1CC=C(n2c(=O)[nH]c3ccccc32)CC1)c1ccc(F)cc1,> 100,96.2
CC(=O)Oc1ccccc1C(=O)N=C1[Se]CCCN1C(=O)c1ccccc1OC(C)=O,24.7,4.12
NC1CCCC[C@H]1N.N[C@@H]1CCCC[C@@H]1N.O=C(P(=O)([O-])[O-])P(=O)([O-])[O-].[Pt+4].[Pt+4],> 100,> 100
O=C(O)Cc1c(O)ccc2ccccc12,> 100,–
CN1CCc2c(Sc3ccc(C(=O)NO)cc3)c3ccccc3n2C1,9.78,2.61
O=C(CSc1nnc(-c2ccccc2NC(=O)C(F)(F)F)c(=O)[nH]1)NC(=O)Nc1ccccc1,> 100,–
N#CC1Nc2ccccc2[C@@H](O)C1O (stereo partly drawn),> 100,–
CCOC(=O)c1[nH]c(COC(C)=O)c(CCCOC(C)=O)c1CCCOC(C)=O,> 100,–
COc1ccc(C(=O)C(CO)Oc2ccccc2OC)cc1OC (stereo not drawn),> 100,–

# Tested on: MOLT-4 leukemia
# Experiment: NCI anticancer screen, dose series, 48 h
Compound,TGI [µM],GI50 [nM]
COc1ccccc1/C=C/c1cnccn1,> 10,–
CC(=O)Oc1ccccc1C(=O)N=C1[Se]CCN1C(=O)c1ccccc1OC(C)=O,> 100,621
CC(C)c1ccccc1S(=O)c1ccccc1C(C)(C)O (stereo not drawn),> 100,–
CC(C)(C)C(=O)/C=C/c1ccc(Oc2ccccc2)cc1,42.4,–
CC1=C(C(=O)Nc2c(C)cccc2C)C(c2ccccc2Cl)C(C(=O)Nc2c(C)cccc2C)=C(C)N1,> 100,–
Cc1cn2c(/C=C3/C(=O)Nc4ccccc43)c(-c3ccc(Cl)cc3)nc2s1,47.4,16900
O=C1CSC(Cc2nc3ccccc3[nH]2)=N1,> 100,–
COc1ccccc1NC(=O)C1=C(C)NC(C)=C(C(=O)Nc2ccccc2OC)C1c1ccc([N+](=O)[O-])cc1,> 100,–
CCOC(=O)[C@H](CCCNC(=O)OC(C)(C)C)NCc1ccc(OC)c(OC)c1,> 100,–
O=C(/C=C/c1c(O)ccc2ccccc12)c1ccc2ccccc2c1,> 100,–
O=[N+]([O-])c1ccc(-n2nnc(C3=NCCCN3)c2-c2ccc(Cl)cc2)cc1,> 100,–
COC(=O)C12C3C4C5(C(=O)OC)C(C1C35C(=O)N(C(C)C)C(C)C)C42C(=O)N(C(C)C)C(C)C (stereo not drawn),> 50,–
N#CC(C#N)=c1[nH]c2cccc3c2-c2c(cccc2c3=C(C#N)C#N)[nH]1,> 100,–
C#C[C@]1(O)CC[C@H]2[C@@H]3CC=C4c5sc(Nc6ccccc6)nc5CC[C@]4(C)[C@H]3CC[C@@]21C,12.4,577
COc1cc(NC(C)CCCN)c2nccc(C)c2c1OC (stereo not drawn),42.1,15300
COC(=O)/C=C/C1C(C(=O)OC)C2(C(=O)OC)CCC1(C(=O)OC)N2 (stereo not drawn),> 100,–
CSC1(CC(=O)N(C)C)C(=O)Nc2ccccc21 (stereo not drawn),> 100,–
N#CC(/C(=N/NC(=O)C(=O)NN)C(=O)NC12CC3CC(CC(C3)C1)C2)c1ccccc1 (stereo not drawn),> 100,–
CC(=O)OCC1OC([S-])C(OC(C)=O)C(OC(C)=O)C1OC(C)=O.CC[PH+](CC)CC.CC[PH+](CC)CC.[Au].[Au] (stereo not drawn),0.52,163
Cc1cc(C)n(CCNCCn2nc(C)cc2C)n1,> 100,–

Compound,TGI [µM],GI50 [nM]
COc1cc2c(cc1OCc1ccccc1)CNCC2,> 100,–
O=C(CN1CCCCC1)N1CCc2c([nH]c3ccccc23)C1c1cccnc1 (stereo not drawn),> 100,–
CCCCCCCCCc1cc(=O)c2c(O)cccc2o1,89.5,–
O=C(C[n+]1ccccc1)NNC(=O)/C(=C/c1ccc2c(c1)OCO2)NC(=O)c1ccccc1,82.7,–
Cc1c(C2Nc3ccccc3C2C)[nH]c2ccccc12 (stereo not drawn),49.5,11200
O=S(O)CCCCSSCc1ccccc1CSSCCCCS(=O)O,14.5,–
Clc1ccc(-c2c(C3=NCCN3)nnn2-c2ccc(Cl)cc2)cc1,29,–
CC(C)(C)N1CC2(CCCCC2)C1=O,> 100,–
O=C(CCC(=O)Nc1cccc(Cl)c1)CC(=O)c1ccc(Cl)cc1,> 100,–
O=C(CCCN1CC=C(n2c(=O)[nH]c3ccccc32)CC1)c1ccc(F)cc1,91.8,30500
CC(=O)Oc1ccccc1C(=O)N=C1[Se]CCCN1C(=O)c1ccccc1OC(C)=O,4.96,1920
CCN(CC)CC(C)(C)C(=O)/C=C/c1ccc(Cl)c(Cl)c1,8.11,2370
NC1CCCC[C@H]1N.N[C@@H]1CCCC[C@@H]1N.O=C(P(=O)([O-])[O-])P(=O)([O-])[O-].[Pt+4].[Pt+4],> 100,16000
O=C(O)Cc1c(O)ccc2ccccc12,> 100,–
CN1CCc2c(Sc3ccc(C(=O)NO)cc3)c3ccccc3n2C1,7.01,2530
O=C(CSc1nnc(-c2ccccc2NC(=O)C(F)(F)F)c(=O)[nH]1)NC(=O)Nc1ccccc1,> 100,–
N#CC1Nc2ccccc2[C@@H](O)C1O (stereo partly drawn),> 100,–
CCOC(=O)c1[nH]c(COC(C)=O)c(CCCOC(C)=O)c1CCCOC(C)=O,> 100,–
COc1ccc(C(=O)C(CO)Oc2ccccc2OC)cc1OC (stereo not drawn),> 100,–

# Tested on: PC-3 prostate
# Experiment: NCI anticancer screen, dose series, 48 h
Compound,TGI [µM],GI50 [nM]
COc1ccccc1/C=C/c1cnccn1,> 10,–
CC(=O)Oc1ccccc1C(=O)N=C1[Se]CCN1C(=O)c1ccccc1OC(C)=O,4.88,1060
CC(C)c1ccccc1S(=O)c1ccccc1C(C)(C)O (stereo not drawn),> 100,–
Cc1cn2c(/C=C3/C(=O)Nc4ccccc43)c(-c3ccc(Cl)cc3)nc2s1,16.9,9810
C#C[C@]1(O)CC[C@H]2[C@@H]3CC=C4c5sc(Nc6ccccc6)nc5CC[C@]4(C)[C@H]3CC[C@@]21C,43.5,1220

# — PubChem BioAssay (NCI)
